The record followed here is PMC9845330 (Communications Biology, 2023).

In this test the test system is subcutaneous H2009 tumors. Nature of the test: Tumor homing by near infrared imaging. Format: in vivo, mouse. To be noted: for Total Radiant Efficiency: Mean. The protocol: Use of MGS4 as a delivery agent relies on its ability to target a tumor in an animal. MGS4_V8 and MGS4_V6 (control) were conjugated directly to Alexa Fluor 750. Each conjugate was injected intravenously into immunocompromised mice bearing subcutaneous H2009 tumors, and accumulation of the peptide was measured by near infrared imaging (Fig. 5a). MGS4_V8 tumor homing is observed at 12 h and 85% of that signal is maintained at 24 h. MGS4_V8 signal remains at 48 and 72 h, indicating persistent retention of the dye in the tumor. At all times, MGS4_V8 has 25-40-fold increased signal compared to the control peptide. […] Tumors were fixed in paraformaldehyde followed by whole tumor imaging on a LI-COR® Odyssey (Fig. 5b). A clear visual difference exists between tumors isolated from mice treated with MGS4_V8 compared to those treated with MGS4_V6 control or untreated. Quantification of fluorescence results in a 240-fold higher signal in the MGS4_V8 treated tumors compared to the MGS4_V6 group. Similar results were obtained when subcutaneous H1299 tumors were established in mice (Supplemental Fig. 5).
Fig. 5 MGS4_V8 homes to xenograft tumor after systemic delivery and can deliver saporin resulting in reduced tumor growth. a H2009 tumor bearing nude mice (N = 4) were injected I.V. with MGS4_V8 or MGS4_V6 conjugated to NIR dye Alexa Fluor 750. At 12, 24, 48, and 72 h postinjection, mice were anesthetized and imaged on an IVIS® (Perkin Elmer) to measure total radiant efficiency in each tumor. MGS4_V8 accumulates in tumor 25–39 fold better than control peptide, MGS4_V6. […] Ex vivo NIR imaging of the tumors at the end of the experiment mirrors the data observed in the living animals. […] Data for individual animals is included in Supplementary Table 8. b Excised tumors from the previous experiment were fixed in PBS + 4% formaldehyde and then imaged again together on a LI-COR® Odyssey. Arbitrary fluorescence units (AFU) were determined for each tumor and the average and SEM are shown below the image. The mean fluorescent intensity is 240-fold greater for MGS4_V8-Alexa Fluor 750 conjugate than the MGS4_V6 control conjugate. c Saporin was conjugated to either targeting MGS4_V8 or nontargeting MGS4_V6 and 7.5 µg of the conjugate was injected I.V. into mice bearing subcutaneous tumors. Animals were dosed 2 times per week for 2.5 weeks (indicated by arrows). Tumors were measured every other day. MGS4_V8-saporin clearly slows tumor growth, while nontargeted saporin has no effect compared to untreated animals. Error bars represent SEM, *p-value < 0.05, **p-value < 0.01, ***p-value < 0.001, ****p-value < 0.0001 (two-way ANOVA). d Tumor size (mm3) are shown for individual animals at days 0, 6, 12, and 18. Mean value is represented by the horizontal line and the error bars represent standard error. There is no statistical difference between MGS4_V6-Saporin and untreated at any day. At days 12 and 18 MGS4_V8-Saporin is statistically different than untreated (p-values 0.0099 and 0.0029, respectively) and MGS4_V6-Saporin (p-values 0.0069 and 0.0009, respectively). TEXT PRINTED IN THE PICTURE: (b) MGS4_V8: AFU: 3.3e6 ± 1.1e5; 240-fold | (b) MGS4_V6: AFU: 1.2e4 ± 2.7e3 DOUBTS OF THE COPYIST ABOUT THIS PICTURE: Panel b, 240-fold: printed under a line spanning MGS4_V8 and MGS4_V6; assigned to MGS4_V8 / Panel b, Untreated column (AFU: 1.6e3 ± 4.3e2) left out because it is a control without a substance
Animal experiments were approved by SRI International’s Institutional Animal Care and Use committee (Animal Welfare Assurance Number A3025-01, protocol 14008). H2009 cells (10^6) or H1299 cells (10^6) were implanted subcutaneously on the flank of female Nu/Nu mice (Jackson Laboratory, Bar Harbor, ME). When tumors reached 100 mm^3, in vivo experiments were initiated. For imaging, the indicated peptides were conjugated directly to Alexa Fluor 750 near-infrared dye (Supplemental Fig. 1). Four animals per group were used. […]

“Also recorded” adds a separate entry of the source. Non-standard residues stand in square brackets, D forms with d. Residues, ends and D or L forms follow the SMILES beside them. *: point of attachment. X1 = O=C(CCCC[C@@H]1SC[C@@H]2NC(=O)N[C@@H]21)NCCCOCCOCCOCCCN*; PEG12 = NCCOCCOCCOCCOCCOCCOCCOCCOCCOCCOCCOCCOCCC(=O)O

As to `CC(=O)N[C@@H](Cc1ccccc1)C(=O)N[C@@H](Cc1c[nH]cn1)C(=O)N[C@@H](C)C(=O)N[C@H](C(=O)N1CCC[C@H]1C(=O)N[C@@H](CCC(N)=O)C(=O)N[C@@H](CO)C(=O)N[C@@H](Cc1ccccc1)C(=O)N[C@@H](Cc1ccc(O)cc1)C(=O)N[C@H](C(=O)NCCOCCOCCOCCOCCOCCOCCOCCOCCOCCOCCOCCOCCC(=O)N[C@@H](CCC(=O)NCCCOCCOCCOCCCNC(=O)CCCC[C@@H]1SC[C@@H]2NC(=O)N[C@@H]21)C(N)=O)[C@@H](C)O)C(C)C` [MGS4_V8] (Ac-FHAVPQSFYT[PEG12]E(X1)-NH2), the “Total Radiant Efficiency” value (12 h) amounted to 1.58e+010; the “Total Radiant Efficiency” value (24 h) came out at 1.33e+010; the “Total Radiant Efficiency” value (48 h) turned out to be 7.91e+009; the “Total Radiant Efficiency” value (72 h (first line)) is given as 7.00e+009; the “Total Radiant Efficiency” value (72 h (second line)) was 2.02e+010. Besides, the “tumor signal maintained relative to 12 h” value (24 h, Alexa Fluor 750 conjugate i.v.) is on record as 85%. Besides, the “fold fluorescence versus MGS4_V6 group” value (excised fixed tumors, 72 h, LI-COR Odyssey) was determined as 240 fold.
Turning to *HAVPQSFYT** [MGS4_V6], the “Total Radiant Efficiency” value reads like this: (12 h) 3.94e+008; (24 h) 3.44e+008; (48 h) 2.64e+008; (72 h (first line)) 2.80e+008; (72 h (second line)) 2.00e+009. In addition, the “tumor signal versus untreated tumors” value (Alexa Fluor 750 conjugate) is “no statistically significant difference; also recorded: statistically no different than untreated tumors”.
